Measured values taken from ChEMBL document CHEMBL6115017, “Discovery of DFV890, a Potent Sulfonimidamide-Containing NLRP3 Inflammasome Inhibitor” (J Med Chem, 2025).
Converted amounts (≈) assume the structure as drawn.

Experiments:
[1] = Solubility of the compound in PBS at pH 7.4; assay type: physicochemical
[2] = Fraction unbound in Sprague-Dawley rat plasma; assay type: ADME, cell-free
[3] = Fraction unbound in human plasma; assay type: ADME, cell-free
[4] = Clearance in Sprague-Dawley rat at 5 mg/kg, po by LC-MS analysis; assay type: ADME, organism-based; settings: in vivo
[5] = Half life in Sprague-Dawley rat at 5 mg/kg, po by LC-MS analysis; assay type: ADME, organism-based; settings: in vivo
[6] = Volume of distribution at steady state in Sprague-Dawley rat at 5 mg/kg, po by LC-MS analysis; assay type: ADME, organism-based; settings: in vivo
[7] = Oral bioavailability in Sprague-Dawley rat at 5 mg/kg administered through oral gavage by LC-MS analysis; assay type: ADME, organism-based; settings: in vivo
[8] = Metabolic stability in rat hepatocytes assessed as intrinsic clearance measured per 10^6 cells; assay type: ADME, cell-based, Hepatocyte; settings: read-out: CLH
[9] = Metabolic stability in human hepatocytes assessed as intrinsic clearance measured per 10^6 cells; assay type: ADME, cell-based, Hepatocyte; settings: read-out: CLH

Row | Structure (SMILES) | solubility [1] [µg/mL] | fraction unbound [2] | fraction unbound [3] | CL/F [4] [mL/min/kg] | half-life [5] [min] | Vdss [6] [L/kg] | bioavailability [7] [%] | hepatocyte CLint [8] [µL/min/1e6 cells] | hepatocyte CLint [9] [µL/min/1e6 cells]
1 | CC(C)(O)c1coc(S(=O)(=O)NC(=O)Nc2c3c(cc4c2CCC4)CCC3)c1 | 1080 (≈ 2680 µM) | 0.013 | 0.007 | 15.9 | 38.1 | 0.271 | 47 | – | –
2 | CC(C)(O)c1csc([S@](N)(=O)=NC(=O)Nc2c3c(cc4c2CCC4)CCC3)c1 | 24 (≈ 57.2 µM) | 0.011 | 0.009 | 1.15 | 175 | 0.191 | 50 | 2.5 | 3.6
3 | CC(C)(O)c1ncc([S@](N)(=O)=NC(=O)Nc2c3c(c(F)c4c2CCC4)CCC3)s1 | 8 (≈ 18.2 µM) | 0.007 | 0.003 | 1.08 | 184 | 0.178 | 68 | 3.7 | 3
4 | CC(C)(O)c1csc([S@](N)(=O)=NC(=O)Nc2c3c(cc4c2CCC4)CCC3)n1 | – | 0.02 | 0.014 | 3.21 | 248 | 0.353 | 70 | 5.2 | 4.2
5 | CC(C)(O)c1nc([S@](N)(=O)=NC(=O)Nc2c3c(cc4c2CCC4)CCC3)cs1 | – | 0.05 | 0.057 | 11.1 | 142 | 0.541 | 100 | 5.4 | 1.6
6 | CC(C)(O)c1cnc([S@](N)(=O)=NC(=O)Nc2c3c(cc4c2CCC4)CCC3)s1 | – | – | 0.009 | 3.7 | 156 | 0.29 | – | 5.2 | 0.63
